Results published in patent publication US12605383B2, “Methods of treating cancer” (priority 2020, dated 2026).

Tests used:
KRASG12C PDX models = details: Janes et al. 2018; cited from earlier work
AE17 s.c. tumor = assay: Subcutaneous AE17 tumor model, tumor size and survival; format: in vivo, B6 mice
AE17 cells = assay: Cell viability (CCK8) assay, AE17 cells; format: cell-based, murine; details: AE17 (KRASG12C mutant), 0.016 up to 7500 nM, 48 h
MC38 s.c. tumor = assay: Subcutaneous MC38 tumor model, tumor size and survival; details: for Median survival: MC38 s.c. tumor, FIG. 2F
[1] = test system: viral replication of vvTD and vvTD-IL36γ; format: cell-based, vaccinia virus
LLC s.c. tumor = assay: Subcutaneous LLC tumor model, tumor size and survival; format: in vivo, B6 mice
[2] = test system: LLC tumor microenvironment; assay: Flow cytometry of immune cells in LLC tumor tissues; format: in vivo, B6 mice; details: days 6 and 11
[3] = test system: LLC tumor-specific T cells; assay: IFN-γ ELISpot assay of TILs from LLC tumors; format: in vivo, B6 mice; details: 2.0×10^4 CD90.2+ TILs, day 7, co-cultured 1:1 with irradiated LLC cells
H2122 cells = assay: Cell viability (CCK8) assay, H2122 cells; format: cell-based, human; details: H2122 (KRASG12C mutant), 0.016 up to 7500 nM, 48 h
LLC cells = assay: Cell viability (CCK8) assay, LLC cells; format: cell-based, murine; details: LLC (KRASG12C mutant), 0.016 up to 7500 nM, 48 h

## C=CC(=O)N1CCN(c2ncnc3c(F)c(-c4c(O)cccc4F)c(Cl)cc23)CC1 [ARS-1620]
KRASG12C PDX models
  in vivo antitumor effect: tumor regression

## C=CC(=O)N1CCN(c2nc(OC[C@@H]3CCCN3C)nc3c2CCN(c2cccc4cccc(C)c24)C3)C[C@@H]1CC#N [MRTX1257]
AE17 s.c. tumor; AE17 s.c. tumor, MRTX1257 60 mg/kg, FIG. 2E
  Median survival: 40.5 days
AE17 s.c. tumor; AE17 s.c. tumor, MRTX1257 100 mg/kg, FIG. 2E
  Median survival: 40 days
AE17 s.c. tumor; AE17 s.c. tumor, MRTX1257 200 mg/kg, FIG. 2E
  Median survival: 47 days
AE17 s.c. tumor; AE17 tumor model, 60-200 mg/kg, FIG. 2B
  inhibition of tumor growth: good efficacy
AE17 s.c. tumor; AE17 tumor, OV i.t. single dose, MRTX1257 60 mg/kg oral daily for 3 weeks, FIG. 3
  Median survival: 49.5 days
AE17 cells
  sensitivity of cancer cells to MRTX1257: highly sensitive
MC38 s.c. tumor; MRTX1257 60 mg/kg
  Median survival: 24 days
MC38 s.c. tumor; MRTX1257 100 mg/kg
  Median survival: 24 days
MC38 s.c. tumor; MRTX1257 200 mg/kg
  Median survival: 22 days
MC38 s.c. tumor; MC38 tumor model, 60-200 mg/kg, FIG. 2C
  inhibition of tumor growth: no effect
[1]
  effect on viral replication and accumulation of vvTD and vvTD-IL36γ: small inhibitory effect
MC38 cells; MC38 (non-KRASG12C), 0.016 up to 7500 nM, 48 h
  sensitivity of cancer cells to MRTX1257: less sensitive
MC38 cells; MC38, MRTX1257 at 100 nM, 24-72 h, versus LLC and AE17
  drug-mediated cytotoxicity over time: much more resistant
LLC s.c. tumor; LLC model, MRTX1257 60 mg/kg oral, OVs 2.0e6 pfu/mouse intratumoral, FIG. 3A
  antitumor effect (tumor size): significant antitumor effect
LLC s.c. tumor; LLC s.c. tumor, MRTX1257 60 mg/kg, FIG. 2D
  Median survival: 36 days
LLC s.c. tumor; LLC s.c. tumor, MRTX1257 100 mg/kg, FIG. 2D
  Median survival: 39.5 days
LLC s.c. tumor; LLC s.c. tumor, MRTX1257 200 mg/kg, FIG. 2D
  Median survival: 45 days
LLC s.c. tumor; LLC tumor model, 60-200 mg/kg, FIG. 2A
  inhibition of tumor growth: good efficacy
LLC s.c. tumor; LLC tumor, OV i.t. single dose, MRTX1257 60 mg/kg oral daily for 3 weeks, FIG. 3B
  Median survival: 39 days
LLC s.c. tumor; LLC tumor, combination with PD-1 blockade, FIG. 6E
  Median survival: 39 days
[2]
  CD8+ T cells in tumor tissue: no reduction
[3]
  number of IFN-γ ELISpot spots: ~180 spots
H2122 cells
  sensitivity of cancer cells to MRTX1257: more sensitive than A549 cells
LLC cells
  sensitivity of cancer cells to MRTX1257: highly sensitive
